Experimental data published in patent US8044022B2, “Hyaluronic acid binding peptides enhance host defense against pathogenic bacteria” (priority 2005, dated 2011).

How the values were obtained:
[1] = test system: Acapsular GAS; experiment: Fluorometry binding of FITC-conjugated peptide to capsule-deficient GAS; set-up: species or system Group A Streptococcus
Procedure: Bacterial strains: GAS strain 950771 is a moderately encapsulated M3 clinical isolate from a child with post-varicella necrotizing fasciitis and sepsis, and an isogenic capsule deficient mutant, 188, derived from 950771. GAS were grown in Todd-Hewitt broth (Difco) to mid-exponential phase OD650 of 0.15 at 37° C. for all experiments. Commercially available trypticase-soy agar medium supplemented with 5% vol/vol sheep blood (BAP)(PML Microbiologicals, British Columbia, Canada) were used for all plate cultures. S. equi s(ATCC 53185) and P. multocida (ATCC 11039) were purchased from ATCC and cultured as recommended. Briefly, S. equi was cultured in Todd-Hewitt broth and S. uberis and P. multocida were cultured in Brain heart infusion (Difco) to OD 650 of 0.15 at 37° C. Quantitative cultures were performed in parallel with each experiment to verify the multiplicity of infection (MOI) of the inoculum.
Binding of HABP to HA and HA-encapsulated bacteria: To assess whether HABP are able to associate specifically with the GAS capsule, bacteria were cultured to mid-log phase, for maximal HA capsule expression, and incubated with either 10 μg/ml of FITC-conjugated HABP01 or SCRM, with purified HA at 1 mg/ml, as a positive control, or an isogenic mutant strain of GAS deficient in HA capsule, as a negative control. A GAS-specific antibody was used to control for the number of bacteria per well.

[2] = test system: GAS; experiment: Mouse soft tissue invasive infection model; set-up: species or system CBA/J mice; settings: in vivo
Procedure: Mouse soft tissue invasive infection model: Female 4-6-week-old CBA/J mice (Jackson Laboratory, […].) were inoculated with GAS. Briefly, mice were anesthetized and the hair was shaved off the right flank. Approximately 1.5×10^5 cfu of GAS from an early log-phase broth culture were suspended in 50 μl of sterile PBS or HABP and inoculated just under the surface of the skin with a 27-guage needle. The animals were observed twice daily for 3-5 days. Serial tail vein bleeds were performed daily and 50 μl of blood was inoculated on BAP for enumeration of viable bacterial CFU and incubated at 37° C. for 24 hours. Animals surviving the experiment or appearing moribund at any time were euthanized and the spleen removed using aseptic technique. The spleen was homogenized in 1 ml of THB and 100 μl of homogenate plated on BAP. In some experiments animals were euthanized at various time points during infection and tissue sections from the inoculation site were prepared for histopathological examination.
HABP-treated mice repeatedly indicated a 24-hour to 48-hour delay in dissemination of bacteria from the inoculation site compared to controls. […] The delayed dissemination correlated with a reduced mortality 24 hours after infection, but once dissemination occurred, HABP-treated mice died rapidly. Histopathologic analysis of the infection site indicated typical lateral GAS dissemination. […]

HKSVSRHTSMRHSTM [SCRM, reference compound]
binding to unencapsulated GAS (in words) ([1]; fluorometry, HABP35 also confocal microscopy, data not shown): did not bind
Relative binding ([1]; substrate in well: Acapsular GAS, 10 μg/ml FITC-conjugated peptide): 1490 ± 40 relative fluorescent units
PMNs at the infection site (confocal microscopy of tissue sections) [2]: numerous polymorphonuclear leukocytes
